# How the values were obtained:
# chickweed = experiment: Test B preemergence/postemergence greenhouse plant response rating 0 to 10; type: in vivo, Stellaria media; details: for Plant response rating, Chickweed: 0 to 10 scale
# Procedure, shortened: (§1)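 Test chemicals were sprayed onto freshly planted seed and, concurrently, onto young plants between the one and four leaf stage. After a twelve- to sixteen-day greenhouse period, each species was visually compared with untreated controls.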
# corn = experiment: as above; type: in vivo, Zea mays; details: for Plant response rating, Corn: 0 to 10 scale
# Procedure, shortened: as §1
# morningglory = experiment: as above; type: in vivo, Ipomoea hederacea; details: 0 to 10 scale
# Procedure, shortened: as §1
# soybean = experiment: as above; type: in vivo, Glycine max; details: 0 to 10 scale
# Procedure, shortened: as §1
# sugar beet = experiment: as above; type: in vivo, Beta vulgaris; details: 0 to 10 scale
# Procedure, shortened: as §1
# velvetleaf = experiment: as above; type: in vivo, Abutilon theophrasti; details: 0 to 10 scale
# Procedure, shortened: as §1
# bermudagrass = experiment: Test G preemergence/postemergence greenhouse plant response rating 0 to 100; type: in vivo, Cynodon dactylon; details: 0 to 100 scale
# Source text: (§2) Seeds, rhizomes, or plant parts of alfalfa (Medicago ativa), annual bluegrass (Poa annua), bermudagrass (Cynodon dactylon), broadleaf signalgrass (Brachiaria plantaginea), common purslane (Portulaca oleracea), common ragweed (Ambrosia elatior), […] (Paspalum dilatatum), goosegrass (Eleusine indica), guineagrass (Panicum maximum), […] exaltata), johnsongrass (Sorghum halepense), large crabgrass (Digitaria sanguinalis), peanut (Arachis hypoagaea), pitted morningglory (Ipomoea lacunosa), purple nutsedge (Cyperus rotundus), sandbur (Cenchrus echinatus), smooth crabgrass (Digitaria ischaemum) and yellow nutsedge (Cyperus esculentus) were planted into greenhouse pots containing greenhouse planting medium. Each pot contained only one plant species. The test compound was dissolved in a non-phytotoxic solvent and applied preemergence and/or postemergence to the plants. Preemergence applications were made within one day of planting the seeds or plant parts. Postemergence applications were applied when the plants were in the two to four leaf stage (three to twenty cm). Test chemicals were dissolved in a non-phytotoxic solvent and applied preemergence and postemergence to the plants. Untreated control plants and treated plants were placed in the greenhouse and visually evaluated for injury at 13 to 21 days after herbicide application. […] A dash (-) response indicates no test result.
# large crabgrass = experiment: as above; type: in vivo, Digitaria sanguinalis; details: 0 to 100 scale
# Source text: as §2
SMILES,"Plant response rating, Chickweed (chickweed; POSTEMERGENCE, Rate 200 g/ha)","Plant response rating, Chickweed (chickweed; PREEMERGENCE, Rate 50 g/ha)","Plant response rating, Chickweed (chickweed; Rate 200 g/ha, PREEMERGENCE)","Plant response rating (0 to 10 scale), Corn (corn; POSTEMERGENCE, Rate 50 g/ha)","Plant response rating, Corn (corn; POSTEMERGENCE, Rate 200 g/ha)","Plant response rating, Corn (corn; PREEMERGENCE, Rate 50 g/ha)","Plant response rating, Corn (corn; Rate 200 g/ha, PREEMERGENCE)","Plant response rating, Morningglory (morningglory; POSTEMERGENCE, Rate 50 g/ha)","Plant response rating, Morningglory (morningglory; POSTEMERGENCE, Rate 200 g/ha)","Plant response rating, Morningglory (morningglory; PREEMERGENCE, Rate 50 g/ha)","Plant response rating, Morningglory (morningglory; Rate 200 g/ha, PREEMERGENCE)","Plant response rating, Soybean (soybean; POSTEMERGENCE, Rate 50 g/ha)","Plant response rating, Soybean (soybean; POSTEMERGENCE, Rate 200 g/ha)","Plant response rating, Soybean (soybean; PREEMERGENCE, Rate 50 g/ha)","Plant response rating, Soybean (soybean; Rate 200 g/ha, PREEMERGENCE)","Plant response rating, Sugar beet (sugar beet; POSTEMERGENCE, Rate 50 g/ha)","Plant response rating, Sugar beet (sugar beet; POSTEMERGENCE, Rate 200 g/ha)","Plant response rating, Sugar beet (sugar beet; PREEMERGENCE, Rate 50 g/ha)","Plant response rating, Sugar beet (sugar beet; Rate 200 g/ha, PREEMERGENCE)","Plant response rating, Velvetleaf (velvetleaf; POSTEMERGENCE, Rate 50 g/ha)",also measured
CC(C)Oc1cc(-c2nn3c(c2Cl)CCCC3)c(F)cc1Cl [Compound 21],7,2,7,5,6,0,1,10,9,2,2,9,9,0,2,10,10,10,9,10,"Plant response rating (0 to 10 scale), Chickweed (chickweed; POSTEMERGENCE, Rate 50 g/ha): 8; Plant response rating, Velvetleaf (velvetleaf; POSTEMERGENCE, Rate 200 g/ha): 9; Plant response rating, Velvetleaf (velvetleaf; PREEMERGENCE, Rate 50 g/ha): 1; Plant response rating, Velvetleaf (velvetleaf; Rate 200 g/ha, PREEMERGENCE): 10; Plant response rating, Bermudagrass (bermudagrass; POSTEMERGENCE, Rate 125 g/ha): 0; Plant response rating, Bermudagrass (bermudagrass; POSTEMERGENCE, Rate 250 g/ha): 0; Plant response rating, Bermudagrass (bermudagrass; PREEMERGENCE, Rate 125 g/ha): 20; Plant response rating, Bermudagrass (bermudagrass; PREEMERGENCE, Rate 250 g/ha): 0; Plant response rating, Large Crabgrass (large crabgrass; POSTEMERGENCE, Rate 125 g/ha): 0; Plant response rating, Large Crabgrass (large crabgrass; POSTEMERGENCE, Rate 250 g/ha): 0; Plant response rating, Large Crabgrass (large crabgrass; PREEMERGENCE, Rate 125 g/ha): 100; Plant response rating, Large Crabgrass (large crabgrass; PREEMERGENCE, Rate 250 g/ha): 60"
CCCOc1cc(-c2nn3c(c2Cl)CCCC3)c(F)cc1Cl [Compound 23],9,0,6,4,6,0,6,8,10,3,8,8,9,1,7,10,10,9,10,9,"Plant response rating, Velvetleaf (velvetleaf; POSTEMERGENCE, Rate 200 g/ha): 10; Plant response rating, Velvetleaf (velvetleaf; PREEMERGENCE, Rate 50 g/ha): 1; Plant response rating, Velvetleaf (velvetleaf; Rate 200 g/ha, PREEMERGENCE): 10; Plant response rating, Bermudagrass (bermudagrass; POSTEMERGENCE, Rate 125 g/ha): 0; Plant response rating, Bermudagrass (bermudagrass; POSTEMERGENCE, Rate 250 g/ha): 0; Plant response rating, Bermudagrass (bermudagrass; PREEMERGENCE, Rate 125 g/ha): 0; Plant response rating, Bermudagrass (bermudagrass; PREEMERGENCE, Rate 250 g/ha): 50; Plant response rating, Large Crabgrass (large crabgrass; POSTEMERGENCE, Rate 125 g/ha): 0; Plant response rating, Large Crabgrass (large crabgrass; POSTEMERGENCE, Rate 250 g/ha): 0; Plant response rating, Large Crabgrass (large crabgrass; PREEMERGENCE, Rate 125 g/ha): 0; Plant response rating, Large Crabgrass (large crabgrass; PREEMERGENCE, Rate 250 g/ha): 70"
Fc1cc(Cl)c(OC2CCCC2)cc1-c1nn2c(c1Cl)CCCC2 [Compound 24],9,0,3,5,5,0,1,9,8,1,5,6,8,0,2,10,10,9,9,10,"Plant response rating (0 to 10 scale), Chickweed (chickweed; POSTEMERGENCE, Rate 50 g/ha): 8; Plant response rating, Velvetleaf (velvetleaf; POSTEMERGENCE, Rate 200 g/ha): 10; Plant response rating, Velvetleaf (velvetleaf; PREEMERGENCE, Rate 50 g/ha): 1; Plant response rating, Velvetleaf (velvetleaf; Rate 200 g/ha, PREEMERGENCE): 9; Plant response rating, Bermudagrass (bermudagrass; POSTEMERGENCE, Rate 125 g/ha): 0; Plant response rating, Bermudagrass (bermudagrass; POSTEMERGENCE, Rate 250 g/ha): 0; Plant response rating, Bermudagrass (bermudagrass; PREEMERGENCE, Rate 125 g/ha): 30; Plant response rating, Bermudagrass (bermudagrass; PREEMERGENCE, Rate 250 g/ha): 0; Plant response rating, Large Crabgrass (large crabgrass; POSTEMERGENCE, Rate 125 g/ha): 0; Plant response rating, Large Crabgrass (large crabgrass; POSTEMERGENCE, Rate 250 g/ha): 0; Plant response rating, Large Crabgrass (large crabgrass; PREEMERGENCE, Rate 125 g/ha): 80; Plant response rating, Large Crabgrass (large crabgrass; PREEMERGENCE, Rate 250 g/ha): 90"
Fc1cc(Cl)c(OCc2ccccc2)cc1-c1nn2c(c1Cl)CCCC2 [Compound 22],7,0,2,3,4,2,4,5,9,2,2,5,6,0,2,9,6,1,9,6,"Plant response rating, Velvetleaf (velvetleaf; POSTEMERGENCE, Rate 200 g/ha): 9; Plant response rating, Velvetleaf (velvetleaf; PREEMERGENCE, Rate 50 g/ha): 4; Plant response rating, Velvetleaf (velvetleaf; Rate 200 g/ha, PREEMERGENCE): 5; Plant response rating, Bermudagrass (bermudagrass; POSTEMERGENCE, Rate 125 g/ha): 20; Plant response rating, Bermudagrass (bermudagrass; POSTEMERGENCE, Rate 250 g/ha): 0; Plant response rating, Bermudagrass (bermudagrass; PREEMERGENCE, Rate 125 g/ha): 0; Plant response rating, Bermudagrass (bermudagrass; PREEMERGENCE, Rate 250 g/ha): 0; Plant response rating, Large Crabgrass (large crabgrass; POSTEMERGENCE, Rate 125 g/ha): 0; Plant response rating, Large Crabgrass (large crabgrass; POSTEMERGENCE, Rate 250 g/ha): 0; Plant response rating, Large Crabgrass (large crabgrass; PREEMERGENCE, Rate 125 g/ha): 0; Plant response rating, Large Crabgrass (large crabgrass; PREEMERGENCE, Rate 250 g/ha): 0"

# Reference: patent US6358885B1, “Substituted phenylheterocyclic herbicides” (Mississippi State University, priority 1992, dated 2002)
